In patent US20190373892A1, “FORMALDEHYDE-FREE PRESERVATIVES FOR HIGHLY SUSCEPTIBLE PRODUCTS” (Troy Corporation, priority 2018, published 2019):
Values after ≈ are worked out from the molar mass of the structure shown.

How the values were obtained:
[1] = tested on: Pseudomonas aeruginosa (ATCC #10145); experiment: Minimum Inhibitory Concentration (MIC) testing by microbroth dilution; format: cell-based; conditions: ATCC10145, 72 h, 1x Nutrient Broth, 35° C., 3 days, no growth via turbidity
[2] = tested on: Alcaligenes faecalis (ATCC #25094), Enterobacter aerogenes (ATCC #13048), Escherichia coli (ATCC #11229), Pseudomonas aeruginosa (ATCC #10145) and Pseudomonas …; experiment: Bacterial challenge test in laboratory-made wallboard joint compound; format: cell-based; conditions: 200 ppm total active
Excerpt: Because this bacterial challenge test is intended to test the performance of in-can preservatives during long-term storage, only the last day of each seven-day challenge is considered important. The test sample was inoculated with bacteria on the first day of each seven-day challenge.
Bacteria were inoculated into the laboratory-made test wallboard joint formulations at approximately 10^6 CFU/g at time equals zero on the first day of each seven-day cycle. Viability of the bacteria was monitored semi-quantitatively through streak analysis 1, 2, and 7 days after inoculation. This procedure was performed twice for a total of two to four seven-day cycles. A rating of “4” indicates heavy growth, while a rating of “0” indicates undetectable growth, defined as <10 CFU/g of material. Samples free of detectable growth after 7 days are considered to be well-preserved.
For comparison, a blank, unpreserved laboratory-made wallboard joint composition is shown, as well as a laboratory-made wallboard joint composition that is preserved with a commercial formaldehyde-producing preservative, comprising 78 wt % of 2,2′,2″-(hexahydro-1,3,5-triazine-1,3,5-triyl)-triethanol (HHT). The various preservatives were added to the laboratory-made wallboard joint compound at the levels shown, in ppm by weight.

**Q.** How did the MIC [1] turn out when O=c1[nH]sc2ccccc12 [BIT, 1,2-benzisothiazol-3(2H)-one] was run?
**A.** 30.8 µg/mL (≈ 204 µM)

**Q.** What about the “Protection of wallboard joint compound in words” value [2] of the same compound?
**A.** neither 200 ppm BIT nor Ziram alone being capable of protecting the wallboard joint compound
